ChEMBL document CHEMBL1201862, “PubChem BioAssay data set” (2004)
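Five compound concentrations were applied to cells in 96-well plates for 48 hours; endpoints were derived by simple linear interpolation of the resulting dose-response curve. Here, GI50 denotes the concentration required for 50% inhibition of growth.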 The source made the active and inactive calls. No stated cut-off is given here; in the data, active = GI50 up to about 1.1 µM and inactive = higher.

Legend:
Assay in all cases: NCI-60 cell line screen, 48 h
[1] = system: A498
[2] = system: ACHN
[3] = system: CAKI-1
[4] = system: CCRF-CEM
[5] = system: COLO 205
[6] = system: EKVX
[7] = system: HCT-116
[8] = system: HL-60
[9] = system: IGROV-1
[10] = system: MOLT-4
[11] = system: Malme-3M
[12] = system: NCI-H522
[13] = system: SF-295
[14] = system: SK-MEL-5
[15] = system: SK-OV-3
[16] = system: SNB-19
[17] = system: SNB-75
[18] = system: SW-620
[19] = system: TK-10

Measured: GI50

CCCCCCCCCCCC(=O)OCCOCCOCCOCCOCCOCc1ccccc1
inactive: [1] > 100 µM | [2] > 100 µM | [3] > 100 µM | [4] > 100 µM | [5] > 100 µM | [6] > 100 µM | [7] > 100 µM | [8] 34.4 µM | [9] > 100 µM | [10] > 100 µM | [11] > 100 µM | [12] > 100 µM | [13] > 100 µM | [14] > 100 µM | [15] > 100 µM | [16] > 100 µM | [17] > 100 µM | [18] > 100 µM | [19] > 100 µM

Cc1cc(C(F)(F)F)cc(-n2nc(NS(=O)(=O)c3cc(C)c(Cl)cc3S)nc2N)n1
inactive: [1] 26 µM | [2] 53.3 µM | [3] 7.46 µM | [4] 23.7 µM | [5] > 100 µM | [6] 55.6 µM | [7] 33.7 µM | [8] 32.8 µM | [9] 36.6 µM | [10] 24.3 µM | [11] > 100 µM | [12] 32 µM | [13] 8.79 µM | [14] 37.1 µM | [15] 81.7 µM | [16] 26.8 µM | [17] > 100 µM | [18] > 100 µM | [19] > 100 µM

N#CCCN(c1ccc(/C=N/c2ccc(C(=O)O)cc2)cc1)S(=O)(=O)c1ccccc1
inactive: [1] > 100 µM | [2] > 100 µM | [3] > 100 µM | [4] > 100 µM | [5] > 100 µM | [6] > 100 µM | [7] > 100 µM | [8] 41.4 µM | [9] > 100 µM | [10] > 100 µM | [11] > 100 µM | [12] > 100 µM | [13] > 100 µM | [14] > 100 µM | [15] > 100 µM | [16] > 100 µM | [17] > 100 µM | [18] > 100 µM | [19] > 100 µM

Cc1ccc(NC(=O)C(=O)Cc2cccc[n+]2[O-])cc1C
inactive: [1] > 100 µM | [2] > 100 µM | [3] > 100 µM | [4] > 100 µM | [5] > 100 µM | [6] > 100 µM | [7] > 100 µM | [8] > 100 µM | [9] > 100 µM | [10] > 100 µM | [11] > 100 µM | [12] > 100 µM | [13] > 100 µM | [14] > 100 µM | [15] > 100 µM | [16] > 100 µM | [17] > 100 µM | [18] > 100 µM | [19] > 100 µM

COC(=O)C1CCc2nnc(-c3cccnc3)n21 (stereo unspecified)
inactive: [1] > 100 µM | [2] > 100 µM | [3] > 100 µM | [4] > 100 µM | [5] > 100 µM | [6] > 100 µM | [7] > 100 µM | [8] > 100 µM | [9] > 100 µM | [10] > 100 µM | [11] > 100 µM | [12] > 100 µM | [14] > 100 µM | [15] > 100 µM | [16] > 100 µM | [17] > 100 µM | [18] > 100 µM | [19] > 100 µM

CC(C)C(=O)NC(=S)Nc1ccc([N+](=O)[O-])cc1C#N
inactive: [1] > 100 µM | [2] > 100 µM | [3] 66.2 µM | [4] > 100 µM | [5] 16.8 µM | [6] 63.8 µM | [7] > 100 µM | [8] > 100 µM | [9] > 100 µM | [10] > 100 µM | [11] > 100 µM | [12] > 100 µM | [13] > 100 µM | [14] > 100 µM | [15] > 100 µM | [16] > 100 µM | [17] 16.7 µM | [18] > 100 µM | [19] > 100 µM

CC(=O)Nc1ccc(S(=O)(=O)N/N=C(\C)CN2C(=O)c3ccccc3C2=O)cc1
inactive: [1] > 100 µM | [2] > 100 µM | [3] > 100 µM | [4] > 100 µM | [5] > 100 µM | [6] > 100 µM | [7] > 100 µM | [8] > 100 µM | [9] > 100 µM | [10] > 100 µM | [11] > 100 µM | [12] > 100 µM | [13] > 100 µM | [14] > 100 µM | [15] > 100 µM | [16] > 100 µM | [17] 75.5 µM | [18] > 100 µM | [19] > 100 µM

Cc1c(Cl)ccc2c1NC(=O)C2(O)C(C(=O)c1ccccc1)c1ccccc1 (stereo unspecified)
inactive: [1] 24 µM | [2] 72.4 µM | [3] 58.3 µM | [4] 14.7 µM | [5] > 100 µM | [6] 43.3 µM | [7] 75.9 µM | [8] 13.2 µM | [9] > 100 µM | [10] 22.9 µM | [11] 93.3 µM | [12] 27.7 µM | [13] 36.5 µM | [14] 23.3 µM | [15] > 100 µM | [16] 62.8 µM | [17] 46.7 µM | [18] 42.4 µM | [19] 52 µM
